Source: patent US20120022045A1, “BRIDGED COMPOUNDS AS HIV INTEGRASE INHIBITORS” (priority 2009, published 2012)
Where two headings read alike, the source gives them in different places.

How the values were obtained:
Format in all cases: cell-based
HIV-1 = experiment: Inhibition of acute HIV-1 infection of T-lymphoid cells (spread assay); details: 10% FBS, read-out: IC95 (nM) in the presence of 10% FBS
Experimental: Assays for the inhibition of acute HIV-1 infection of T-lymphoid cells were conducted in accordance with Vacca, J. P. et al., Proc. Natl. Acad. Sci. USA 1994, 91: 4096.

[1] = test system: HIV-1 integrase mutant virus Y143R; experiment: Single cycle infectivity assay in HeLa P4-2 cells, integrase mutant Y143R virus; details: fold shift in IC50 versus wild type IIIB
Experimental: (§1) An assay for measuring the inhibition of acute HIV-1 infection with HeLa P4-2 cells in a single cycle infectivity assay was conducted using methods described in Joyce et al., J. Biol. Chem. 2002, 277: 45811, Hazuda et al., Science 2000, 287: 646, and Kimpton et al, J. Virol. 1992, 66: 2232. Proviral plasmids encoding viruses containing specific mutations in the integrase gene (N155H, Q148R, Y143R, E92Q, or G140S/Q148H) were generated by site-directed mutagenesis, and viruses were produced by transfecting 293T cells with the appropriate proviral plasmids.

[2] = test system: HIV-1 integrase mutant virus Q148R; experiment: Single cycle infectivity assay in HeLa P4-2 cells, integrase mutant Q148R virus; details: fold shift in IC50 versus wild type IIIB
Experimental: as §1

[3] = test system: HIV-1 integrase mutant virus N155H; experiment: Single cycle infectivity assay in HeLa P4-2 cells, integrase mutant N155H virus; details: fold shift in IC50 versus wild type IIIB
Experimental: as §1

HIV-1 wild type IIIB = experiment: Single cycle infectivity assay in HeLa P4-2 cells, wild type virus
Experimental: as §1

[4] = test system: HIV-1 integrase mutant virus G140S/Q148H; experiment: Single cycle infectivity assay in HeLa P4-2 cells, integrase mutant G140S/Q148H virus; details: fold shift in IC50 versus wild type IIIB
Experimental: as §1

[5] = Human immunodeficiency virus 1, T-lymphoid
[6] = Human immunodeficiency virus 1, IIIB, HeLaP4-2, wild type IIIB

SMILES | IC95 (HIV-1) | Y143R (shift) [1] | Q148R (shift) [2] | N155H (shift) [3] | IC50 (HIV-1 wild type IIIB; wild type IIIB) | G140S/Q148H (shift) [4] | IC95 (HIV-1; [5]) | IC50 (HIV-1 wild type IIIB; [6])
CC1C2CCC(N(C)C(=O)C(=O)N(C)C)(CO2)c2nc(C(=O)NCc3ccc(F)cc3)c(O)c(=O)n21 (single isomer, unassigned) [Example 27C, N-(4-{[(4-fluorobenzyl)amino]carbonyl}-5-hydroxy-8-methyl-6-oxo-10-oxa-3,7-diazatricyclo[7.2.2.0^2,7]trideca-2,4-dien-1-yl)-N,N′,N′-trimethylethanediamide] | 7.7 nM | 3 fold | 12 fold | 11 fold | 15 nM | >111 fold | – | –
CC1C2CCC(N(C)C(=O)C(=O)N(C)C)(CO2)c2nc(C(=O)NCc3ccc(F)cc3)c(O)c(=O)n21 (single isomer, unassigned) [Example 27A, N-(4-{[(4-fluorobenzyl)amino]carbonyl}-5-hydroxy-8-methyl-6-oxo-10-oxa-3,7-diazatricyclo[7.2.2.0^2,7]trideca-2,4-dien-1-yl)-N,N′,N′-trimethylethanediamide] | 7.5 nM | 1 fold | 1 fold | 1 fold | 20 nM | 2 fold | – | –
CC1C2CCC(NC(=O)C(=O)N(C)C)(CO2)c2nc(C(=O)NCc3ccc(F)cc3)c(O)c(=O)n21 (single isomer, unassigned) [Example 29D, N′-(4-{[(4-Fluorobenzyl)amino]carbonyl}-5-hydroxy-8-methyl-6-oxo-10-oxa-3,7-diazatricyclo[7.2.2.0^2,7]trideca-2,4-dien-1-yl)-N-dimethylethanediamide] | 21.6 nM | 1 fold | 1 fold | 2 fold | 21 nM | 2 fold | – | –
CN(C)C(=O)C(=O)N(C)C12CCC(O)(CC1)Cn1c2nc(C(=O)NCc2ccc(F)cc2)c(O)c1=O [Example 17, N-(4-{[(4-Fluorobenzyl)amino]carbonyl}-5,9-dihydroxy-6-oxo-3,7-diazatricyclo[7.2.2.0^2,7]trideca-2,4-dien-1-yl)-N,N′,N′-trimethylethanediamide] | – | 1 fold | 3 fold | 3 fold | – | 38 fold | 20.5 nM | 46 nM
CC1C2CCC(NC(=O)C(=O)N(C)C)(CO2)c2nc(C(=O)NCc3ccc(F)cc3)c(O)c(=O)n21 (single isomer, unassigned) [Example 29A, N′-(4-{[(4-Fluorobenzyl)amino]carbonyl}-5-hydroxy-8-methyl-6-oxo-10-oxa-3,7-diazatricyclo[7.2.2.0^2,7]trideca-2,4-dien-1-yl)-N-dimethylethanediamide] | 17.9 nM | 1 fold | 1 fold | 1 fold | 20 nM | 4 fold | – | –
CCC1C2CCC(NC(=O)C(=O)N(C)C)(CO2)c2nc(C(=O)NCc3ccc(F)cc3)c(O)c(=O)n21 (single isomer, unassigned) [Example 26D, N′-(8-ethyl-4-{[(4-fluorobenzyl)amino]carbonyl}-5-hydroxy-6-oxo-10-oxa-3,7-diazatricyclo[7.2.2.0^2,7]trideca-2,4-dien-1-yl)-N-dimethylethanediamide] | 5.1 nM | 2 fold | 1 fold | 1 fold | 16 nM | 1 fold | – | –
CCC1C2CCC(NC(=O)C(=O)N(C)C)(CO2)c2nc(C(=O)NCc3ccc(F)cc3)c(O)c(=O)n21 (single isomer, unassigned) [Example 26C, N′-(8-ethyl-4-{[(4-fluorobenzyl)amino]carbonyl}-5-hydroxy-6-oxo-10-oxa-3,7-diazatricyclo[7.2.2.0^2,7]trideca-2,4-dien-1-yl)-N-dimethylethanediamide] | 18.1 nM | 2 fold | 9 fold | 12 fold | 23 nM | 26 fold | – | –
CC1C2CCC(N(C)C(=O)C(=O)N(C)C)(CO2)c2nc(C(=O)NCc3ccc(F)cc3)c(O)c(=O)n21 (single isomer, unassigned) [Example 27D, N-(4-{[(4-fluorobenzyl)amino]carbonyl}-5-hydroxy-8-methyl-6-oxo-10-oxa-3,7-diazatricyclo[7.2.2.0^2,7]trideca-2,4-dien-1-yl)-N,N′,N′-trimethylethanediamide] | 6.9 nM | 1 fold | 1 fold | 1 fold | 11 nM | 2 fold | – | –
CC1C2CCC(NC(=O)C(=O)N(C)C)(CO2)c2nc(C(=O)NCc3ccc(F)cc3)c(O)c(=O)n21 (single isomer, unassigned) [Example 29C, N′-(4-{[(4-Fluorobenzyl)amino]carbonyl}-5-hydroxy-8-methyl-6-oxo-10-oxa-3,7-diazatricyclo[7.2.2.0^2,7]trideca-2,4-dien-1-yl)-N-dimethylethanediamide] | 47.8 nM | 3 fold | 8 fold | 17 fold | 20 nM | 81 fold | – | –
COC12CCC(N(C)C(=O)C(=O)N(C)C)(CC1)c1nc(C(=O)NCc3ccc(F)cc3)c(O)c(=O)n1C2 [Example 15, N-(4-{[(4-Fluorobenzyl)amino]carbonyl}-5-hydroxy-9-methoxy-6-oxo-3,7-diazatricyclo[7.2.2.0^2,7]trideca-2,4-dien-1-yl)-N,N′,N′-trimethylethanediamide] | – | 1 fold | 1 fold | 2 fold | – | 9 fold | 9.5 nM | 23 nM
CCC1C2CCC(N(C)C(=O)C(=O)N(C)C)(CO2)c2nc(C(=O)NCc3ccc(F)cc3)c(O)c(=O)n21 (single isomer, unassigned) [Example 25D, N-(8-ethyl-4-{[(4-fluorobenzyl)amino]carbonyl}-5-hydroxy-6-oxo-10-oxa-3,7-diazatricyclo[7.2.2.0^2,7]trideca-2,4-dien-1-yl)-N,N′,N′-trimethylethanediamide] | 7.2 nM | 3 fold | 38 fold | 98 fold | 15 nM | >111 fold | – | –
CCC12CCC(NC(=O)C(=O)N(C)C)(CO1)c1nc(C(=O)NCc3ccc(F)cc3)c(O)c(=O)n1C2 (single isomer, unassigned) [Example 22A, N′-(9-ethyl-4-{[(4-fluorolbenzyl)amino]carbonyl}-5-hydroxy-6-oxo-10-oxa-3,7-diazatricyclo[7.2.2.0^2,7]trideca-2,4-dien-1-yl)-N,N-dimethylethanediamide] | – | 5 fold | 24 fold | 23 fold | 7 nM | 198 fold | 12.7 nM | –
CCC12CCC(NC(=O)C(=O)N(C)C)(CO1)c1nc(C(=O)NCc3ccc(F)cc3)c(O)c(=O)n1C2 (single isomer, unassigned) [Example 22B, N′-(9-ethyl-4-{[(4-fluorolbenzyl)amino]carbonyl}-5-hydroxy-6-oxo-10-oxa-3,7-diazatricyclo[7.2.2.0^2,7]trideca-2,4-dien-1-yl)-N,N-dimethylethanediamide] | 12.6 nM | 1 fold | 3 fold | 3 fold | 19 nM | 10 fold | – | –
CN(C)C(=O)C(=O)N(C)C12CCC(Cn3c1nc(C(=O)NCc1ccc(F)cc1)c(O)c3=O)OC2 (single isomer, unassigned) [Example 23A] | 16.7 nM | 1 fold | 6 fold | 7 fold | 21 nM | 84 fold | – | –
CN(C)C(=O)C(=O)N(C)C12CCC(Cn3c1nc(C(=O)NCc1ccc(F)cc1)c(O)c3=O)C2 (stereo not drawn) [Example 8] | – | 13 fold | 18 fold | 16 fold | – | 110 fold | 9.2 nM | 13 nM
CCC12CCC(N(C)C(=O)C(=O)N(C)C)(CO1)c1nc(C(=O)NCc3ccc(F)cc3)c(O)c(=O)n1C2 (single isomer, unassigned) [Example 20B, N-(9-ethyl-4-{[(4-fluorolbenzyl)amino]carbonyl}-5-hydroxy-6-oxo-10-oxa-3,7-diazatricyclo[7.2.2.0^2,7]trideca-2,4-dien-1-yl)-N,N′,N′-trimethylethanediamide] | 16.7 nM | 1 fold | 11 fold | 7 fold | 17 nM | 102 fold | – | –
